Measurements from patent US20230183259A1, “Crystal Form Of Thiofuran Pyridazine Compound, Preparation Method Therefor And Application Thereof” (ZHEJIANG MEDICINE CO., LTD. XINCHANG PHARMACEUTICAL FACTORY, priority 2020, published 2023).

Experiments:
Type in all cases: physicochemical
[1] = acceleration test (stability); settings: relative humidity 75%±5%; for (%) Impurity B (%) / Crystal form / appearance / Enantiomer (%) / Impurity A (%) / Impurity C (%) / Loss on drying (%) / Single largest impurity (%) / Total relevant substances (%) / content(%): 40° C.±2° C.
Method: (§1) Stability tests were performed on the samples of Examples 1, 2, 3, 4 and 5. […] Please refer to the results of the acceleration test (40° C.±2° C., relative humidity 75%±5%) of Table 1 and the results of the long-term stability test (25° C.±2° C., relative humidity 60%±10%) of Table 2.

long-term stability test [2] = settings: 36 months, temperature 25° C. ±2° C.; relative humidity 60%±5%
long-term stability test [3] = settings: 25° C.±2° C., relative humidity 60%±10%
Method: as §1

(S)-2-(4-fluorophenyl)-4-(piperidine-3-aminomethyl)thieno[2,3-d]pyridazine-7-carboxamide hydrochloride [Example 1]
changes in moisture, related substances, optical isomers and contents under storage conditions ([1]; 6 months, temperature 40° C.±2° C.): no significant changes | changes in moisture, related substances, optical isomers and contents under storage conditions (long-term stability test [2]): no significant changes

(S)-2-(4-fluorophenyl)-4-(piperidine-3-aminomethyl)thieno[2,3-d]pyridazine-7-carboxamide hydrochloride [Example 110601-3]
(%) Impurity B (%) ([1]; 0 month): 0.00% | Crystal form ([1]; 0 month): unchanged | appearance ([1]; 0 month): yellow crystalline powder | Enantiomer (%) ([1]; 0 month, hydrochloride): 0.09% | Impurity A (%) ([1]; 0 month, hydrochloride): 0.28% | Impurity C (%) ([1]; 0 month, hydrochloride): 0.02% | Loss on drying (%) ([1]; 0 month, hydrochloride): 7.2% | Single largest impurity (%) ([1]; 0 month, hydrochloride): 0.01% | Total relevant substances (%) ([1]; 0 month, hydrochloride): 0.37% | content(%) ([1]; 0 month, hydrochloride): 99.6% | Crystal form ([1]; 1 month): unchanged | Impurity C (%) ([1]; 1 month): 0.02% | appearance ([1]; 1 month): yellow crystalline powder | (%) Impurity B (%) ([1]; 1 month, hydrochloride): 0.03% | Enantiomer (%) ([1]; 1 month, hydrochloride): 0.11% | Impurity A (%) ([1]; 1 month, hydrochloride): 0.25% | Loss on drying (%) ([1]; 1 month, hydrochloride): 7.2% | Single largest impurity (%) ([1]; 1 month, hydrochloride): 0.02% | Total relevant substances (%) ([1]; 1 month, hydrochloride): 0.39% | content(%) ([1]; 1 month, hydrochloride): 100.0% | Crystal form ([1]; 2 months): unchanged | appearance ([1]; 2 months): yellow crystalline powder | (%) Impurity B (%) ([1]; 2 months, hydrochloride): 0.03% | Enantiomer (%) ([1]; 2 months, hydrochloride): 0.1% | Impurity A (%) ([1]; 2 months, hydrochloride): 0.26% | Impurity C (%) ([1]; 2 months, hydrochloride): 0.02% | Loss on drying (%) ([1]; 2 months, hydrochloride): 7.2% | Single largest impurity (%) ([1]; 2 months, hydrochloride): 0.03% | Total relevant substances (%) ([1]; 2 months, hydrochloride): 0.38% | content(%) ([1]; 2 months, hydrochloride): 98.2% | (%) Impurity B (%) ([1]; 3 months): 0.00% | Crystal form ([1]; 3 months): unchanged | Impurity C (%) ([1]; 3 months): 0.02% | appearance ([1]; 3 months): yellow crystalline powder | Enantiomer (%) ([1]; 3 months, hydrochloride): 0.09% | Impurity A (%) ([1]; 3 months, hydrochloride): 0.25% | Loss on drying (%) ([1]; 3 months, hydrochloride): 7.2% | Single largest impurity (%) ([1]; 3 months, hydrochloride): 0.02% | Total relevant substances (%) ([1]; 3 months, hydrochloride): 0.33% | content(%) ([1]; 3 months, hydrochloride): 99.9% | (%) Impurity B (%) ([1]; 6 months): 0.00% | Crystal form ([1]; 6 months): unchanged | Impurity C (%) ([1]; 6 months): 0.02% | appearance ([1]; 6 months): yellow crystalline powder | Enantiomer (%) ([1]; 6 months, hydrochloride): 0.08% | Impurity A (%) ([1]; 6 months, hydrochloride): 0.21% | Loss on drying (%) ([1]; 6 months, hydrochloride): 7.1% | Single largest impurity (%) ([1]; 6 months, hydrochloride): 0.02% | Total relevant substances (%) ([1]; 6 months, hydrochloride): 0.28% | content(%) ([1]; 6 months, hydrochloride): 99.7% | Crystal form (long-term stability test [3]; 0 month): unchanged | ImpurityB(%) (long-term stability test [3]; 0 month): 0.00% | Content (calculated by dried product )(%) (long-term stability test [3]; 0 month, hydrochloride): 99.6% | Enantiomers (%) (long-term stability test [3]; 0 month, hydrochloride): 0.09% | ImpurityA(%) (long-term stability test [3]; 0 month, hydrochloride): 0.28% | ImpurityC(%) (long-term stability test [3]; 0 month, hydrochloride): 0.02% | Loss on drying (%) (long-term stability test [3]; 0 month, hydrochloride): 7.2% | Single largest impurity (%) (long-term stability test [3]; 0 month, hydrochloride): 0.01% | Total relevant substances (%) (long-term stability test [3]; 0 month, hydrochloride): 0.37% | appearance (long-term stability test [3]; 0 month, hydrochloride): yellow crystalline powder | Crystal form (long-term stability test [3]; 3 months): unchanged | ImpurityB(%) (long-term stability test [3]; 3 months): 0.00% | ImpurityC(%) (long-term stability test [3]; 3 months): 0.02% | Content (calculated by dried product )(%) (long-term stability test [3]; 3 months, hydrochloride): 100.2% | Enantiomers (%) (long-term stability test [3]; 3 months, hydrochloride): 0.09% | ImpurityA(%) (long-term stability test [3]; 3 months, hydrochloride): 0.26% | Loss on drying (%) (long-term stability test [3]; 3 months, hydrochloride): 7.1% | Single largest impurity (%) (long-term stability test [3]; 3 months, hydrochloride): 0.03% | Total relevant substances (%) (long-term stability test [3]; 3 months, hydrochloride): 0.35% | appearance (long-term stability test [3]; 3 months, hydrochloride): yellow crystalline powder | Crystal form (long-term stability test [3]; 6 months): unchanged | ImpurityB(%) (long-term stability test [3]; 6 months): 0.00% | Content (calculated by dried product )(%) (long-term stability test [3]; 6 months, hydrochloride): 99.6% | Enantiomers (%) (long-term stability test [3]; 6 months, hydrochloride): 0.08% | ImpurityA(%) (long-term stability test [3]; 6 months, hydrochloride): 0.25% | ImpurityC(%) (long-term stability test [3]; 6 months, hydrochloride): 0.02% | Loss on drying (%) (long-term stability test [3]; 6 months, hydrochloride): 7.2% | Single largest impurity (%) (long-term stability test [3]; 6 months, hydrochloride): 0.03% | Total relevant substances (%) (long-term stability test [3]; 6 months, hydrochloride): 0.35% | appearance (long-term stability test [3]; 6 months, hydrochloride): yellow crystalline powder | Crystal form (long-term stability test [3]; 9 months): unchanged | ImpurityC(%) (long-term stability test [3]; 9 months): 0.02% | Content (calculated by dried product )(%) (long-term stability test [3]; 9 months, hydrochloride): 99.5% | Enantiomers (%) (long-term stability test [3]; 9 months, hydrochloride): 0.09% | ImpurityA(%) (long-term stability test [3]; 9 months, hydrochloride): 0.25% | ImpurityB(%) (long-term stability test [3]; 9 months, hydrochloride): 0.01% | Loss on drying (%) (long-term stability test [3]; 9 months, hydrochloride): 7.2% | Single largest impurity (%) (long-term stability test [3]; 9 months, hydrochloride): 0.02% | Total relevant substances (%) (long-term stability test [3]; 9 months, hydrochloride): 0.38% | appearance (long-term stability test [3]; 9 months, hydrochloride): yellow crystalline powder | Crystal form (long-term stability test [3]; 12 months): unchanged | ImpurityB(%) (long-term stability test [3]; 12 months): 0.01% | Single largest impurity (%) (long-term stability test [3]; 12 months): 0.02% | Content (calculated by dried product )(%) (long-term stability test [3]; 12 months, hydrochloride): 99.9% | Enantiomers (%) (long-term stability test [3]; 12 months, hydrochloride): 0.08% | ImpurityA(%) (long-term stability test [3]; 12 months, hydrochloride): 0.25% | ImpurityC(%) (long-term stability test [3]; 12 months, hydrochloride): 0.03% | Loss on drying (%) (long-term stability test [3]; 12 months, hydrochloride): 7.3% | Total relevant substances (%) (long-term stability test [3]; 12 months, hydrochloride): 0.35% | appearance (long-term stability test [3]; 12 months, hydrochloride): yellow crystalline powder | Crystal form (long-term stability test [3]; 18 months): unchanged | ImpurityB(%) (long-term stability test [3]; 18 months): 0.00% | Single largest impurity (%) (long-term stability test [3]; 18 months): 0.02% | Content (calculated by dried product )(%) (long-term stability test [3]; 18 months, hydrochloride): 101.1% | Enantiomers (%) (long-term stability test [3]; 18 months, hydrochloride): 0.06% | ImpurityA(%) (long-term stability test [3]; 18 months, hydrochloride): 0.25% | ImpurityC(%) (long-term stability test [3]; 18 months, hydrochloride): 0.03% | Loss on drying (%) (long-term stability test [3]; 18 months, hydrochloride): 7.1% | Total relevant substances (%) (long-term stability test [3]; 18 months, hydrochloride): 0.31% | appearance (long-term stability test [3]; 18 months, hydrochloride): yellow crystalline powder | Crystal form (long-term stability test [3]; 24 months): unchanged | Enantiomers (%) (long-term stability test [3]; 24 months): 0.08% | ImpurityB(%) (long-term stability test [3]; 24 months): 0.00% | ImpurityC(%) (long-term stability test [3]; 24 months): 0.02% | Single largest impurity (%) (long-term stability test [3]; 24 months): 0.02% | Content (calculated by dried product )(%) (long-term stability test [3]; 24 months, hydrochloride): 98.6% | ImpurityA(%) (long-term stability test [3]; 24 months, hydrochloride): 0.25% | Loss on drying (%) (long-term stability test [3]; 24 months, hydrochloride): 7.3% | Total relevant substances (%) (long-term stability test [3]; 24 months, hydrochloride): 0.34% | appearance (long-term stability test [3]; 24 months, hydrochloride): yellow crystalline powder | Crystal form (long-term stability test [3]; 36 months): unchanged | ImpurityC(%) (long-term stability test [3]; 36 months): 0.02% | Single largest impurity (%) (long-term stability test [3]; 36 months): 0.02% | Content (calculated by dried product )(%) (long-term stability test [3]; 36 months, hydrochloride): 99.7% | Enantiomers (%) (long-term stability test [3]; 36 months, hydrochloride): 0.06% | ImpurityA(%) (long-term stability test [3]; 36 months, hydrochloride): 0.26% | ImpurityB(%) (long-term stability test [3]; 36 months, hydrochloride): 0.01% | Loss on drying (%) (long-term stability test [3]; 36 months, hydrochloride): 7.0% | Total relevant substances (%) (long-term stability test [3]; 36 months, hydrochloride): 0.36% | appearance (long-term stability test [3]; 36 months, hydrochloride): yellow crystalline powder
